Results published in patent US20080213404A1, “Hif Modulating Compounds and Methods of Use Thereof” (priority 2005, published 2008).
Structures can show the parent of a compound that is named as a salt. Where two headings read alike, the source gives them in different places.

How the values were obtained:
[1] = tested on: intracellular killing of GAS by macrophages; test: Bacterial killing assay (antibiotic protection): intracellular killing of GAS by macrophages; format: cell-based, mouse; conditions: for intracellular killing of GAS by WT macrophages: preincubation 5 hours, L-Mim 800 μM, OH-pyridone 150 μM, desferrioxamine mesylate 100 μM, CoCl2 100 μM
Protocol: FIG. 2 is a series of graphs showing HIF-1 regulates bactericidal activity of myeloid cells. (A) Intracellular killing of GAS by WT, HIF-1-null, or vHL-null macrophages. BM-derived macrophages were inoculated with GAS at an MOI equal to 2.5 and cultured under normoxic (white bars) or hypoxic (0.1%; black bars) conditions for 1 hour after antibiotic treatment. Statistical analyses were performed using unpaired Student's t test. *P<0.05; **P<0.01. (B) Loss of HIF-1 in macrophages decreases intracellular killing of GAS and of P. aeruginosa. WT (black bars) or HIF-1-null (white bars) BM-derived macrophages were incubated with bacteria for 1 hour before antibiotics were added. Intracellular killing was analyzed by determination of viable CFUs in macrophage lysates at the specified time points after bacterial uptake. Experiments were performed in triplicate. […] Experiment shown is representative of 3 repeated studies. (C) Loss of vHL in BM-derived macrophages increases intracellular killing of GAS and of P. aeruginosa. Experiments were performed in triplicate and are representative of 3 repeated studies. […] (D) Pharmacologic agonists of HIF-1 increase myeloid cell bactericidal activity. Preincubation (5 hours) with desferrioxamine mesylate (DFO), CoCl2, OH-pyridone, or Mim increased the intracellular killing capacity of WT macrophages against GAS. ***P<0.001.
To assess the functional consequences of HIF-1α activation, we used an antibiotic protection assay to calculate intracellular killing of GAS by WT macrophages compared with killing by those derived from the bone marrow of HIF-1α-lysMcre mice (11). Here, targeted deletion of the HIF-1α gene has been created via crosses into a background of cre expression driven by the lysozyme M promoter (lysMcre), allowing specific deletion of the transcription factor in the myeloid lineage (11). […] Macrophage killing of the Gram-negative bacterium P. aeruginosa was likewise impaired upon deletion of HIF-1α (FIG. 2B).
Finally, we treated WT macrophages with a number of known pharmacologic inducers of HIF-1α that each act directly or indirectly to inhibit prolyl hydroxylase targeting of HIF-1α for ubiquitination. These included the iron chelator desferrioxamine, CoCl2, L-Mim, and 3-hydroxy-1,2-dimethyl-4(1H)-pyridone (OH-pyridone) (13). The addition of each of these agents increased intracellular killing of GAS by WT macrophages (FIG. 2D).
Bacterial killing assays. GAS were grown to logarithmic phase in THB to OD600=1×10^8 cfu/ml. Bacteria were added to macrophages at an MOI of 2.5 bacteria/cell and intracellular killing assessed using an antibiotic protection assay (11, 53) or, alternatively, total cell-associated bacteria measured by vigorous washing with PBS×3 to remove nonadherent bacteria. At the end of the assay, total cell lysate was plated on THB agar for enumeration of CFU. […] To assess macrophage viability, the monolayers were washed with PBS and incubated with 0.04% Trypan blue for 10 minutes at 37° C. As specified in the FIG. 2 legend and in Results, macrophages were preincubated with L-Mim (800 μM), OH-pyridone (150 μM), desferrioxamine mesylate (100 μM), or CoCl2 (100 μM) for 5 hours prior to the killing assay; each drug level was known to be sufficient for HIF-1 induction (13). Absence of bacterial inhibition was tested by incubating the drugs at the above concentrations with GAS (˜105) at 37° C. for 1-24 hours. Mouse model of GAS infection.

NO production = test: Nitrite determination (Griess assay) in macrophage supernatants under GAS stimulation; format: cell-based, mouse; conditions: 1.5 mM AG; macrophages cultured 20 hours
Protocol: (§1) FIG. 6 provides graphs showing HIF-1 and vHL regulate NO production. (A) Total RNA from WT, HIF-1−/−, and vHL−/− bone marrow-derived macrophages infected with GAS isolated 3 hours after antibiotic treatment. iNOS mRNA was quantified by RT-PCR. WT, nonstimulated macrophages were arbitrarily set to 1 unit following normalization to ribosomal RNA levels. (B) NO production under GAS stimulation ±1.5 mM AG ([…]; Calbiochem). BM-derived macrophages were cultured for 20 hours, conditioned supernatant collected, and NO […] levels measured by the Griess assay. (C) Mim enhances iNOS expression of WT macrophages stimulated by GAS. Total RNA from WT and HIF-1-null BM-derived macrophages infected with GAS±Mim isolated 3 hours after antibiotic treatment. iNOS mRNA was quantified by RT-PCR. WT, noninfected macrophages were arbitrarily set to 1 unit following normalization to ribosomal RNA levels. Statistical analyses performed by unpaired Student's t test. **P<0.01; ***P<0.001. […]
The concentration of nitrite (NO2-), the stable oxidized derivative of NO, was determined in 100-μl aliquots of cell culture supernatants transferred to 96-well plates. Essentially, 100 μl of Griess reagent (1% sulfanilamide, 0.1% naphthylene diamine dihydrochloride, 2% H3PO4) was added per well, and the absorbances were measured at 540 nm in a microplate reader. […]

HIF-1α = test: Western blot of HIF-1α in macrophages exposed to GAS; format: cell-based, mouse; conditions: WT macrophages, normalized to β-actin
Protocol: as §1
Peritoneal neutrophils or bone marrow-derived macrophages inoculated with GAS were harvested and washed with PBS, and proteins were extracted with HTAB or RIPA buffers. Protein concentration was calculated using the Bio-Rad assay (Bio-Rad Laboratories). […] Immunoreactive proteins were detected using the ECL chemiluminescent system (Amersham Biosciences).

TNF-α = TNF-α ELISA of conditioned macrophage supernatants after GAS; format: cell-based, mouse; conditions: WT, HIF-1α and vHL-deficient macrophages, 1 hour after antibiotic treatment
Protocol: FIG. 7 is a series of graphs illustrating HIF-1 and vHL regulate TNF-production. (A) Total RNA from WT, HIF-1−/−, and vHL−/− bone marrow-derived macrophages infected with GAS were isolated 3 hours after antibiotic treatment. TNF-mRNA was quantified by RT-PCR. WT, nonstimulated macrophages were arbitrarily set to 1 unit following normalization to ribosomal RNA levels. (B) inhibition of iNOS decreases TNF-production. BM-derived macrophages were cultured for 1 hour after antibiotic treatment. Conditioned supernatant was harvested and TNF-protein analyzed by ELISA (eBiosciences). Statistical analyses were performed using unpaired Student's t test. ***P<0.001.
We next examined the expression pattern of TNF-α, a cytokine involved in the augmentation of inflammatory responses to microbial infection. Indeed, development of GAS-necrotizing fasciitis has been reported as a complication of anti-TNF-α therapy (37). […] Whereas basal levels of TNF-α protein expression were similar in WT, HIF-1α, and vHL-null macrophages, loss of HIF-1α also strongly depressed the rapid secretion of TNF-α protein in response to GAS (FIG. 7B).

[2] = tested on: HIF-1α-dependant transcription (HRE-luciferase reporter); test: HRE-luciferase reporter assay in BM-derived macrophages of HRE-luciferase transgenic mice; format: cell-based, mouse; conditions: 18 hours; L-Mim 800 μM, desferrioxamine mesylate 150 μM, CoCl2 150 μM
Protocol: (C) HRE-luciferase BM-derived macrophages were incubated either with GAS or heat-inactivated GAS at an MOI equal to 5-10 under hypoxia (1%) or with the addition of mimosine (800 μM), desferrioxamine mesylate (150 μM), or CoCl2 (150 μM) for 18 hours.
We measured HIF-1α-dependant transcription in macrophages derived from HRE-luciferase transgenic mice, which contain a luciferase reporter gene driven by 6 consecutive specific HRE sequences.
Macrophages were derived from the marrow of femurs and tibiae of transgenic HRE-luciferase mice as described above. The luciferase reporter gene in these mice is driven by 6 specific HRE sequences. Cells were incubated with GAS or heat-inactivated GAS for 18 hours. […] Cells were then washed out with PBS, and luciferase assay was performed by using the Bright-Glo Luciferase Assay kit (Promega Corp.). Luciferase activities were measured using a luminometer.

iNOS = iNOS mRNA by RT-PCR in BM-derived macrophages infected with GAS; format: cell-based, mouse; conditions: for expression of iNOS mRNA: WT macrophages infected with GAS, RNA isolated 3 hours after antibiotic treatment
Protocol: (A) Total RNA from WT, HIF-1−/−, and vHL−/− bone marrow-derived macrophages infected with GAS isolated 3 hours after antibiotic treatment. iNOS mRNA was quantified by RT-PCR. WT, nonstimulated macrophages were arbitrarily set to 1 unit following normalization to ribosomal RNA levels. […] Total RNA from WT and HIF-1-null BM-derived macrophages infected with GAS±Mim isolated 3 hours after antibiotic treatment. iNOS mRNA was quantified by RT-PCR. WT, noninfected macrophages were arbitrarily set to 1 unit following normalization to ribosomal RNA levels. Statistical analyses performed by unpaired Student's t test. **P<0.01; ***P<0.001.
First-strand synthesis was obtained from 1 μg of total RNA isolated with Trizol reagent (Molecular Research Center Inc.) by the SuperScript system (Invitrogen Corp.), employing random primers.

Staphylococcus aureus [3] = test: Bactericidal capacity of freshly isolated human blood; format: cell-based
Staphylococcus aureus [4] = test: Bactericidal capacity of freshly isolated human neutrophils against S. aureus; format: cell-based
Staphylococcus aureus [5] = test: Bactericidal capacity of cultured human monocytic cells against S. aureus; format: cell-based
[6] = tested on: vincomycin-resistant Enterococcus species; conditions: freshly isolated human neutrophils
[7] = tested on: vincomycin-resistant Enterococcus species; conditions: cultured human monocytic cells

Cc1ccc(S(=O)(=O)O)cc1.NNC(N)=NO [AG, 1-amino-2-hydroxyguanidine, p-toluenesulfate]
bactericidal activity of HIF-1α-null macrophages ([1]; HIF-1α-null macrophages, presence of iNOS inhibitor): did not further suppress | bactericidal activity of WT macrophages ([1]; WT macrophages, presence of iNOS inhibitor): inhibited | production of NO in response to GAS (NO production): significantly inhibited | GAS-induced increase of HIF-1α levels (HIF-1α): blocked | TNF-α protein in conditioned supernatants (TNF-α): reduced amounts

[Cl][Co][Cl] [CoCl2, cobalt chloride]
increase in luciferase reporter activity [2]: 3 fold | intracellular killing of GAS by WT macrophages [1]: increased

N[C@@H](Cn1ccc(=O)c(O)c1)C(=O)O [L-Mim, 3-Hydroxy-4-oxo-1(4H)-pyridinealanine]
intracellular killing of GAS by WT macrophages [1]: increased | increased expression of iNOS mRNA (iNOS; HIF-1α-null macrophages infected with GAS): very low | expression of iNOS mRNA (iNOS): greatly increased | expression of iNOS mRNA (iNOS; listed as Mim): enhances | bactericidal capacity against Staphylococcus aureus (Staphylococcus aureus [3]): increase | bactericidal capacity against Staphylococcus aureus (Staphylococcus aureus [4]): increase | bactericidal capacity against Staphylococcus aureus (Staphylococcus aureus [5]): increase | bactericidal capacity against vincomycin-resistant Enterococcus species [6]: increase | bactericidal capacity against vincomycin-resistant Enterococcus species [7]: increase

Cc1c(O)c(=O)ccn1C [OH-pyridone, 3-hydroxy-1,2-dimethyl-4(1H)-pyridone]
intracellular killing of GAS by WT macrophages [1]: increased

CC(=O)N(O)CCCCCNC(=O)CCC(=O)N(O)CCCCCNC(=O)CCC(=O)N(O)CCCCCN [desferrioxamine mesylate]
increase in luciferase reporter activity [2]: 3 fold | intracellular killing of GAS by WT macrophages [1]: increased
